Data taken from US11053204B2, “Pyrimidinyloxy benzene derivatives as herbicides” (FMC Corporation, priority 2015, dated 2021).

Experiments:
Format in all cases: in vivo
[1] = test system: Italian ryegrass (Lolium multiflorum); test: Test A preemergence, visual injury rating
How it was run: (§1)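 Visual injury scored 0–100 (100 = complete control) against untreated controls about 10 days after treatment in a greenhouse. Test chemicals, formulated with surfactant in non-phytotoxic solvent, were sprayed on soil preemergence or on 2-10 cm, one- to two-leaf plants postemergence.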

[2] = test system: barnyardgrass (Echinochloa crus-galli); test: Test A preemergence, visual injury rating
How it was run: as §1

[3] = test system: giant foxtail (Setaria faberii); test: Test A preemergence, visual injury rating
How it was run: as §1

kochia (Kochia scoparia) [4] = test: Test A preemergence, visual injury rating
How it was run: as §1

[5] = test system: pigweed (Amaranthus retroflexus); test: Test A preemergence, visual injury rating; conditions: 0 to 100 scale (0 no effect, 100 complete control)
How it was run: as §1

[6] = test system: ragweed (common ragweed, Ambrosia elatior); test: Test A preemergence, visual injury rating
How it was run: as §1

[7] = test system: ducksalad (Heteranthera limosa); test: Test B flooded paddy test, plant response rating; conditions: 250 g ai/ha; Flood; scale of 0 to 100 where 0 is no effect and 100 is complete control; 13 to 15 days
How it was run: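 Compound was added to standing water 3 cm above soil, flood maintained, and plants held in a greenhouse before visual scoring against controls at 13 to 15 days.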

[8] = test system: barnyardgrass (Echinochloa crus-galli); test: Test C postemergence, plant response rating; conditions: for Plant response rating, Barnyardgrass: scale 0 to 100; for Barnyardgrass plant response rating: scale 0 to 100 (0 no effect, 100 complete control)
How it was run: (§2)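 Greenhouse plants rated visually against untreated controls 13–15 d after treatment, scale 0 = no effect to 100 = complete control. Postemergence sprays went onto potted plants 2–18 cm tall (1–4 leaves); preemergence sprays onto soil freshly sown in loam–sand or silt loam, chemicals formulated in non-phytotoxic solvent with surfactant.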

corn (Zea mays) = test: Test C postemergence, plant response rating; conditions: for Corn plant response rating: scale 0 to 100 (0 no effect, 100 complete control)
How it was run: as §2

[9] = test system: crabgrass, large (large crabgrass, Digitaria sanguinalis); test: Test C postemergence, plant response rating; conditions: for Crabgrass, Large plant response rating: scale 0 to 100 (0 no effect, 100 complete control)
How it was run: as §2

kochia (Kochia scoparia) [10] = test: Test C postemergence, plant response rating; conditions: for Kochia plant response rating: scale 0 to 100 (0 no effect, 100 complete control)
How it was run: as §2

[11] = test system: lambsquarters (Chenopodium album); test: Test C postemergence, plant response rating; conditions: for Lambsquarters plant response rating: scale 0 to 100 (0 no effect, 100 complete control)
How it was run: as §2

[12] = test system: morningglory (Ipomoea coccinea); test: Test C postemergence, plant response rating; conditions: for Morningglory plant response rating: scale 0 to 100 (0 no effect, 100 complete control)
How it was run: as §2

[13] = test system: nutsedge, yellow (yellow nutsedge, Cyperus esculentus); test: Test C postemergence, plant response rating; conditions: for Nutsedge, Yellow plant response rating: scale 0 to 100 (0 no effect, 100 complete control)
How it was run: as §2

[14] = test system: oat, wild (wild oat Avena fatua); test: Test C postemergence, plant response rating; conditions: for Oat, Wild plant response rating: scale 0 to 100 (0 no effect, 100 complete control)
How it was run: as §2

[15] = test system: ragweed (common ragweed, Ambrosia elatior); test: Test C postemergence, plant response rating; conditions: for Ragweed plant response rating: scale 0 to 100 (0 no effect, 100 complete control)
How it was run: as §2

[16] = test system: velvetleaf (Abutilon theophrasti); test: Test C postemergence, plant response rating; conditions: for Velvetleaf plant response rating: scale 0 to 100 (0 no effect, 100 complete control)
How it was run: as §2

[17] = 125 g ai/ha, 0 to 100 scale (0 no effect, 100 complete control)
[18] = 500 g ai/ha, 0 to 100 scale (0 no effect, 100 complete control)
[19] = 31 g ai/ha, 0 to 100 scale, 0 no effect, 100 complete control

SMILES: N#CCCOC(=O)c1c(Br)cccc1Oc1ncc(Cl)cn1 [Compound 7]
- Ryegrass, Italian plant response rating [1, 17]: 0
- Ryegrass, Italian plant response rating [1, 18]: 30
- Barnyardgrass plant response rating [2, 17]: 50
- Barnyardgrass plant response rating [2, 18]: 100
- Foxtail, Giant plant response rating [3, 17]: 90
- Foxtail, Giant plant response rating [3, 18]: 100
- Kochia plant response rating (kochia (Kochia scoparia) [4]; [17]): 50
- Kochia plant response rating (kochia (Kochia scoparia) [4]; [18]): 100
- Pigweed plant response rating ([5]; 125 g ai/ha): 100
- Pigweed plant response rating ([5]; 500 g ai/ha): 100
- Ragweed plant response rating [6, 18]: 50
- Plant response rating, Ducksalad [7]: 0
- Plant response rating, Barnyardgrass ([8]; 16 g ai/ha): 5
- Plant response rating, Barnyardgrass ([8]; 31 g ai/ha): 5
- Barnyardgrass plant response rating ([8]; 62 g ai/ha): 15
- Barnyardgrass plant response rating ([8]; 125 g ai/ha): 10
- Plant response rating, Corn (corn (Zea mays); 16 g ai/ha, scale 0 to 100): 5
- Plant response rating, Corn (corn (Zea mays); 31 g ai/ha, scale 0 to 100): 10
- Corn plant response rating (corn (Zea mays); 62 g ai/ha): 10
- Corn plant response rating (corn (Zea mays); 125 g ai/ha): 15
- Plant response rating, Crabgrass, Large ([9]; 16 g ai/ha, scale 0 to 100): 5
- Plant response rating, Crabgrass, Large ([9]; 31 g ai/ha, scale 0 to 100): 5
- Crabgrass, Large plant response rating ([9]; 62 g ai/ha): 20
- Crabgrass, Large plant response rating ([9]; 125 g ai/ha): 15
- Plant response rating, Kochia (kochia (Kochia scoparia) [10]; 16 g ai/ha, scale 0 to 100): 0
- Plant response rating, Kochia (kochia (Kochia scoparia) [10]; 31 g ai/ha, scale 0 to 100): 30
- Kochia plant response rating (kochia (Kochia scoparia) [10]; 62 g ai/ha): 25
- Kochia plant response rating (kochia (Kochia scoparia) [10]; 125 g ai/ha): 20
- Plant response rating, Lambsquarters ([11]; 16 g ai/ha, scale 0 to 100): 5
- Plant response rating, Lambsquarters ([11]; 31 g ai/ha, scale 0 to 100): 25
- Lambsquarters plant response rating ([11]; 62 g ai/ha): 30
- Lambsquarters plant response rating ([11]; 125 g ai/ha): 55
- Plant response rating, Morningglory ([12]; 16 g ai/ha, scale 0 to 100): 5
- Plant response rating, Morningglory ([12]; 31 g ai/ha, scale 0 to 100): 25
- Morningglory plant response rating ([12]; 62 g ai/ha): 40
- Morningglory plant response rating ([12]; 125 g ai/ha): 55
- Plant response rating, Nutsedge, Yellow ([13]; 16 g ai/ha, scale 0 to 100): 0
- Plant response rating, Nutsedge, Yellow ([13]; 31 g ai/ha, scale 0 to 100): 0
- Nutsedge, Yellow plant response rating ([13]; 62 g ai/ha): 5
- Nutsedge, Yellow plant response rating ([13]; 125 g ai/ha): 5
- Plant response rating, Oat, Wild ([14]; 16 g ai/ha, scale 0 to 100): 0
- Plant response rating, Oat, Wild ([14]; 31 g ai/ha, scale 0 to 100): 0
- Oat, Wild plant response rating ([14]; 62 g ai/ha): 5
- Oat, Wild plant response rating ([14]; 125 g ai/ha): 5
- Plant response rating, Ragweed ([15]; 16 g ai/ha, scale 0 to 100): 10
- Plant response rating, Ragweed ([15]; 31 g ai/ha, scale 0 to 100): 20
- Ragweed plant response rating ([15]; 62 g ai/ha): 20
- Ragweed plant response rating ([15]; 125 g ai/ha): 25
- Plant response rating, Velvetleaf ([16]; 16 g ai/ha, scale 0 to 100): 5
- Plant response rating, Velvetleaf ([16]; 31 g ai/ha, scale 0 to 100): 20
- Velvetleaf plant response rating ([16]; 62 g ai/ha): 35
- Velvetleaf plant response rating ([16]; 125 g ai/ha): 40

SMILES: O=C(CCCC(F)(F)F)c1c(Cl)cccc1Oc1ncc(Cl)cn1 [Compound 143]
- Plant response rating, Ryegrass, Italian [1, 19]: 20
- Plant response rating, Ryegrass, Italian [1, 17]: 70
- Plant response rating, Barnyardgrass [2, 19]: 20
- Plant response rating, Barnyardgrass [2, 17]: 100
- Plant response rating, Foxtail, Giant [3, 19]: 100
- Plant response rating, Foxtail, Giant [3, 17]: 100
- Plant response rating, Kochia (kochia (Kochia scoparia) [4]; [19]): 100
- Plant response rating, Kochia (kochia (Kochia scoparia) [4]; [17]): 100
- Plant response rating, Ragweed [6, 19]: 0
- Plant response rating, Ragweed [6, 17]: 0
- Plant response rating, Ducksalad [7]: 90
- Plant response rating, Barnyardgrass ([8]; 16 g ai/ha): 5
- Plant response rating, Barnyardgrass ([8]; 31 g ai/ha): 10
- Barnyardgrass plant response rating ([8]; 62 g ai/ha): 10
- Barnyardgrass plant response rating ([8]; 125 g ai/ha): 20
- Plant response rating, Corn (corn (Zea mays); 16 g ai/ha, scale of 0 to 100): 15
- Plant response rating, Corn (corn (Zea mays); 31 g ai/ha, scale 0 to 100): 20
- Corn plant response rating (corn (Zea mays); 62 g ai/ha): 20
- Corn plant response rating (corn (Zea mays); 125 g ai/ha): 30
- Plant response rating, Crabgrass, Large ([9]; 16 g ai/ha, scale of 0 to 100): 5
- Plant response rating, Crabgrass, Large ([9]; 31 g ai/ha, scale 0 to 100): 5
- Crabgrass, Large plant response rating ([9]; 62 g ai/ha): 15
- Crabgrass, Large plant response rating ([9]; 125 g ai/ha): 30
- Plant response rating, Kochia (kochia (Kochia scoparia) [10]; 16 g ai/ha, scale of 0 to 100): 98
- Plant response rating, Kochia (kochia (Kochia scoparia) [10]; 31 g ai/ha, scale 0 to 100): 100
- Kochia plant response rating (kochia (Kochia scoparia) [10]; 62 g ai/ha): 100
- Kochia plant response rating (kochia (Kochia scoparia) [10]; 125 g ai/ha): 100
- Plant response rating, Lambsquarters ([11]; 16 g ai/ha, scale of 0 to 100): 75
- Plant response rating, Lambsquarters ([11]; 31 g ai/ha, scale 0 to 100): 90
- Lambsquarters plant response rating ([11]; 62 g ai/ha): 90
- Lambsquarters plant response rating ([11]; 125 g ai/ha): 95
- Plant response rating, Morningglory ([12]; 16 g ai/ha, scale of 0 to 100): 15
- Plant response rating, Morningglory ([12]; 31 g ai/ha, scale 0 to 100): 70
- Morningglory plant response rating ([12]; 62 g ai/ha): 50
- Morningglory plant response rating ([12]; 125 g ai/ha): 65
- Plant response rating, Nutsedge, Yellow ([13]; 16 g ai/ha, scale of 0 to 100): 0
- Plant response rating, Nutsedge, Yellow ([13]; 31 g ai/ha, scale 0 to 100): 5
- Nutsedge, Yellow plant response rating ([13]; 62 g ai/ha): 5
- Nutsedge, Yellow plant response rating ([13]; 125 g ai/ha): 25
- Plant response rating, Oat, Wild ([14]; 16 g ai/ha, scale of 0 to 100): 10
- Plant response rating, Oat, Wild ([14]; 31 g ai/ha, scale 0 to 100): 10
- Oat, Wild plant response rating ([14]; 62 g ai/ha): 10
- Oat, Wild plant response rating ([14]; 125 g ai/ha): 20
- Plant response rating, Ragweed ([15]; 16 g ai/ha, scale of 0 to 100): 20
- Plant response rating, Ragweed ([15]; 31 g ai/ha, scale 0 to 100): 50
- Ragweed plant response rating ([15]; 62 g ai/ha): 55
- Ragweed plant response rating ([15]; 125 g ai/ha): 55
- Plant response rating, Velvetleaf ([16]; 16 g ai/ha, scale of 0 to 100): 35
- Plant response rating, Velvetleaf ([16]; 31 g ai/ha, scale 0 to 100): 55
- Velvetleaf plant response rating ([16]; 125 g ai/ha): 70
